Data published in paper PMC9071946, “In vitro and in silico determination of glutaminyl cyclase inhibitors” (RSC Advances, 2019).

Assays:
[1] = biological target: human glutaminyl cyclase (hQC) (Homo sapiens, UniProt Q16769); experiment: hQC inhibition, fluorometric assay with fluorogenic substrate Glu-AMC and pGAPase
Procedure: The synthesized compounds were evaluated for hQC inhibition by a fluorometric assay with a fluorogenic substrate, Glu-AMC·HBr (L-glutamine 7-amido-4-methylcoumarin, BACHEM, Switzerland), and an auxiliary enzyme, pyroglutamyl peptidase (pGAPase, 50 units, Qiagen, Germany), as our previously reported.[29] The used buffer consisted of 25 mM HEPES (Sigma), with pH 7.0, adjusted with HCl. […] After incubation in 96-well black plates (Greiner, Austria) for 10 min at 37 °C, the reaction was started by adding 50 μL of hQC solution (0.04 μg mL^−1). The excitation/emission wavelengths at 380/460 nm were correlated with the amount of ACM, the last product of the enzymatic process.

[2] = parameters: method as in PMID 26101580; conditions: cited from earlier work
[3] = tested on: human QC; conditions: ref bindingdb.org, cited from earlier work
[4] = IC50 for inhibition of the hQC enzyme, Table 1, HEPES pH 7.0, 37 °C
[5] = Table 2, from IC50 assumed equal to the inhibition constant ki
[6] = supplement Table S1, compounds 1_x and 3_x

human glutaminyl cyclase (hQC), sequence (Q16769 29-361): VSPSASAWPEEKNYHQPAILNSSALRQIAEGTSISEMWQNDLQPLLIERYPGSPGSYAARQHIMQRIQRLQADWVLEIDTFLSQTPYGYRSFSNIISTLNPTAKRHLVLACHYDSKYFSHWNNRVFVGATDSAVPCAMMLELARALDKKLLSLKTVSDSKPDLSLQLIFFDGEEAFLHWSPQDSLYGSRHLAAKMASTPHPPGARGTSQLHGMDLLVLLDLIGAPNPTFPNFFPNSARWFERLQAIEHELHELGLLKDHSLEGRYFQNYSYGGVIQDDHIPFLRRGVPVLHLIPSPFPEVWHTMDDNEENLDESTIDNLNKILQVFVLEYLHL

IC50 ([1]; IC50, supplement Table S3) [nM]	IC50 [1, 4] [nM]	ΔGEXP [1, 5] [kcal/mol]	ΔGEXP [1, 6] [kcal/mol]	more potent than 1_1 ([1]; ratio of IC50 values) [folds]	SMILES	permeation of the BBB [2]	ΔGEXP ([3]; supplement Table S1, ligands 1-12) [kcal/mol]	Ki ([3]; supplement Table S3) [nM]
316	320 ± 100	-8.92	–	–	COc1ccc(Nc2nc(CCn3cncc3C)cs2)cc1OC [Compound 1_3]	–	–	–
305	300 ± 90	-8.94	–	–	COc1cc2nc(NCCCn3cncc3C)sc2cc1OC [Compound 1_1]	–	–	–
–	–	–	–	–	COc1cc(NC(=S)NCCCn2ccnc2)ccc1O[11CH3] [[^11C]PBD150]	impossible permeation the BBB	–	–
420	420 ± 60	-8.75	-8.69	–	COc1ccc(Nc2nnc(CCn3cncc3C)o2)cc1OC [Compound 1_4]	–	–	–
–	–	–	–	–	c1ccc(Cn2ccnc2)cc1 [Compound 77918]	–	-9.03	262
446	450 ± 40	-8.68	-8.59	–	Cc1cncn1CCCNC(Cc1ccccc1)C(=O)NC(C)C(N)=O (stereo not shown) [Compound 3_3]	–	–	–
107	110 ± 30	-9.57	–	2	COc1cc2nc(NCCCn3cncc3C)[nH]c2cc1OC [Compound 1_2, 5,6-dimethoxy-N-(3-(5-methyl-1H-imidazol-1-yl)propyl)-1H-benzo[d]imidazol-2-amine]	–	–	–
637	640 ± 90	-8.50	-8.45	–	COC(=O)C(C)NC(=O)C(Cc1ccccc1)NCCCn1cncc1C (stereo not shown) [Compound 3_1]	–	–	–
